Read-outs that look alike come from different tables or passages of the source.

This assay addresses CB1 (mutant) (Homo sapiens, UniProt P21554). Briefly: R-SAT functional receptor assay, CB1 (mutant, truncated after amino acid 417). As to conditions: R-SAT CB1; for pIC50 / IC50: receptor form (mutant or wild-type) not stated; for Emax: receptor form not stated, relative to SR141716 (100%), read-out: % Inhibition. In kind it is cell-based.
[1] abbreviates: Appendix A, read-out: pIC50 (converted).

Sequence of CB1 (mutant) (P21554 1-417, change not shown): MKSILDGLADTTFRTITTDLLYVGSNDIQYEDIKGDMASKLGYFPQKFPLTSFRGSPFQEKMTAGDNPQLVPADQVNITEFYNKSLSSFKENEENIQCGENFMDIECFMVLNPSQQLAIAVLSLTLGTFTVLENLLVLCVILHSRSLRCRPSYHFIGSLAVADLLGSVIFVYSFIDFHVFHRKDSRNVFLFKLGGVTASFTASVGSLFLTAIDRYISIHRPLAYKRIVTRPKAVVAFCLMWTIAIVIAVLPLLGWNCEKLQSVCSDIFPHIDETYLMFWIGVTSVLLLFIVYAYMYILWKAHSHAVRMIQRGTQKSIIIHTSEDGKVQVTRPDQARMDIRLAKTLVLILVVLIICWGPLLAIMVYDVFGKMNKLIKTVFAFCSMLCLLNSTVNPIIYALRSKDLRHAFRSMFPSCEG

Regarding `CCONC(=O)c1ccc2c(c1)N=C(c1ncccc1C)c1ccccc1S2`, where the note is “Appendix A”, the pIC50 – broadly, the IC50 on a negative log10 scale, so that one unit is a factor of ten – is given as 1.0 and the Emax came out at 21%.
With `Cc1cccnc1C1=Nc2cc(C(=O)NCc3ccco3)ccc2Sc2ccccc21`, the IC50 under setting [1] was 316 nM. For the same molecule, where the note is “Appendix A”, the Emax was found to be 83%.
Consider `COc1ccc(C2=Nc3cc(C(=O)NC4CCCCNC4=O)ccc3Sc3ccccc32)cc1` (centres unmarked), for which the IC50 under setting [1] was 251 nM. For the same molecule, for the setting “Appendix A”, the Emax was 62%.
With `O=C(NN1CCCCC1)c1ccc2c(c1)N=C(c1cccc(Cl)c1)c1ccccc1S2` [drawing 1127], under setting [1], the IC50 is 39.8 nM. For the setting “Appendix A”, the Emax was 106%.
On to `O=C(NCc1cccc(Cl)c1)c1ccc2c(c1)N=C(c1ccc(Cl)cc1)c1ccccc1S2` [drawing 579], for which the IC50 under setting [1] is 3.16 nM. Under “Appendix A”, the Emax was 112%.
For `O=C(NCc1ccco1)c1ccc2c(c1)N=C(c1ccc(Cl)c(Cl)c1)c1ccccc1S2` [drawing 691], under setting [1], the IC50 was 6.31 nM. Where the note is “Appendix A”, the Emax stood at 97%.
For `CONC(=O)c1ccc2c(c1)N=C(c1ccccc1Cl)c1ccccc1S2`, for the setting “Appendix A”, the pIC50 is given as 1.0 and the Emax was -15%.
As for `O=C(NCc1ccncc1)c1ccc2c(c1)N=C(c1ccccc1F)c1ccccc1S2`, the Emax (Appendix A) turned out to be 94%.
`CCCCNC(=O)c1ccc2c(c1)N=C(c1ccc(Cl)cn1)c1ccc(F)cc1S2` [drawing 632]: under setting [1], the IC50 was 63.1 nM. Also, where the note is “Appendix A”, the Emax turned out to be 95%.
Regarding `O=C(NN1CCOCC1)c1ccc2c(c1)N=C(c1cccc(F)c1)c1ccccc1S2`, the IC50 under setting [1] is 200 nM. Also, the Emax (Appendix A) turned out to be 63%.
The corresponding values for `O=C(NCc1ccccc1Br)c1ccc2c(c1)N=C(N1CCCCC1)c1ccccc1S2` [drawing 890] are 200 nM and 62%.
In the case of `Cc1ccsc1C1=Nc2cc(C(=O)NC3CCC(F)(F)CC3)ccc2Sc2ccccc21` [drawing 620], where the note is “Appendix A”, the Emax was 76%. Also, the IC50 (pIC50, Appendix A) is 63.1 nM.
In the case of `CCCC1=Nc2cc(C(=O)NC(C)C34CC5CC(CC(C5)C3)C4)ccc2Sc2ccccc21` (centres unmarked), the IC50 under setting [1] was 79.4 nM. Where the note is “Appendix A”, the Emax turned out to be 112%.
The corresponding values for `O=C(NCc1cccs1)c1ccc2c(c1)N=C(c1cccc(Cl)c1)c1ccccc1S2` [drawing 573] are 2.51 nM and 108%.
Take `O=C(NCc1cccc(Cl)c1)c1ccc2c(c1)N=C(c1ccc(F)cc1)c1ccccc1[S+]2[O-]` (centres unmarked) [drawing 670]: under “Appendix A”, the Emax came to 89%.
Take `CCCC1=Nc2cc(C(=O)N3CCN(c4cc(C)ccc4C)CC3)ccc2Sc2ccccc21`: under setting [1], the IC50 was 158 nM. Also, the Emax (Appendix A) turned out to be 90%.
With `O=C(NC1CCC(F)(F)CC1)c1ccc2c(c1)N=C(c1ccc(Cl)s1)c1ccccc1S2` [drawing 767], under setting [1], the IC50 is 10 nM. For the same molecule, the Emax (Appendix A) was found to be 71%.
With `O=C(NCc1ccc(Cl)cc1Cl)c1ccc2c(c1)N=C(c1ccc(Cl)cc1)c1ccccc1S2` [drawing 901], under setting [1], the IC50 was 15.8 nM. Further, the Emax (Appendix A) is 101%.
The corresponding values for `O=C(NCCc1ccc(Cl)cc1)c1ccc2c(c1)N=C(N1CCC(F)(F)CC1)c1ccccc1S2` [drawing 628] are 63.1 nM and 99%.
Take `CON(C)C(=O)c1ccc2c(c1)N=C(c1ccc(Cl)cc1Cl)c1ccccc1S2`: for the setting “Appendix A”, the negative logarithm of the IC50 (pIC50) amounted to 1.0 and the Emax was 18%.
For `Cc1ccsc1C1=Nc2cc(C(=O)NCCCC(F)(F)F)ccc2Sc2ccccc21` [drawing 599], under setting [1], the IC50 was 3.98 nM. Further, the Emax (Appendix A) was determined as 111%.
In the case of `O=C(NCCc1ccccc1)c1ccc2c(c1)N=C(c1cccc(Cl)c1)c1ccccc1S2` [drawing 731], the Emax (Appendix A) came to 104%. Moreover, the IC50 (pIC50, Appendix A) was 7.94 nM.
`O=C(NC1CCCC1)c1ccc2c(c1)N=C(c1ccccn1)c1ccccc1S2`: under setting [1], the IC50 was 158 nM. The Emax (Appendix A) was 81%.
On to `CCCCN(C)C(=O)c1ccc2c(c1)N=C(c1ccc(Cl)cc1F)c1ccccc1S2`, for which the Emax (Appendix A) was 84%.
Turning to `CCCCNC(=O)c1ccc2c(c1)N=C(c1ccc(OC)cc1)c1ccccc1S2` [drawing 887], under setting [1], the IC50 is 15.8 nM. The Emax (Appendix A) was found to be 112%.
With `CCOCCNC(=O)c1ccc2c(c1)N=C(c1ccc(Br)cc1)c1ccccc1S2` [drawing 1143], the IC50 under setting [1] was 39.8 nM. The Emax (Appendix A) came to 85%.
On to `CCCC1=Nc2cc(C(=O)NCc3ccco3)ccc2Sc2ccccc21`, for which the IC50 under setting [1] is 31.6 nM. In addition, the Emax (Appendix A) was determined as 103%.
For `CCOC(=O)c1ccc(C2=Nc3cc(C(=O)NCc4ccccn4)ccc3Sc3ccccc32)cc1` [drawing 874], the IC50 under setting [1] is 200 nM. For the same molecule, the Emax (Appendix A) came to 100%.
For the molecule `C[C@@H]1CCC[C@H](C)N1NC(=O)c1ccc2c(c1)N=C(c1ccc(Cl)cc1F)c1ccccc1S2` [drawing 811], the IC50 under setting [1] is 10 nM. Further, the Emax (Appendix A) is 103%.
As for `CC(C)NC(=O)c1ccc2c(c1)N=C(c1ccc(Br)cc1)c1ccccc1S2`, the Emax (Appendix A) came to 83%.
As for `O=C(NCc1cccnc1)c1ccc2c(c1)N=C(c1ccccn1)c1ccccc1S2`, the IC50 under setting [1] was 316 nM. Besides, the Emax (Appendix A) turned out to be 67%.
In the same order, the values of `CC(NC(=O)c1ccc2c(c1)N=C(c1ccc(F)cc1)c1ccccc1S2)c1ccccc1` (centres unmarked) [drawing 760] are 100 nM and 81%.
For `O=C(NCc1ccc(F)cc1)c1ccc2c(c1)N=C(c1ccccc1)c1ccccc1S2` [drawing 745], the IC50 under setting [1] is 7.94 nM. Further, the Emax (Appendix A) was 108%.
In the same order, the values of `CCCNC(=O)c1ccc2c(c1)N=C(c1ccc(F)cc1)c1ccccc1S2` [drawing 841] are 12.6 nM and 95%.
The corresponding values for `O=C(NCCc1ccncc1)c1ccc2c(c1)N=C(c1ccc(Cl)cc1Cl)c1ccccc1S2` are 316 nM and 72%.
As for `O=C(NN1CCOCC1)c1ccc2c(c1)N=C(c1cccc(Cl)c1)c1ccccc1S2`, the IC50 under setting [1] was 79.4 nM. For the same molecule, the Emax (Appendix A) is 80%.
As to `CCCC1=Nc2cc(C(=O)NC3CCN(C(=O)OCC)CC3)ccc2Sc2ccccc21`, the IC50 under setting [1] is 251 nM. The Emax (Appendix A) is 77%.
Regarding `CC(C)NC(=O)c1ccc2c(c1)N=C(c1ccc(Cl)s1)c1ccccc1S2` [drawing 550], the IC50 under setting [1] was 39.8 nM. Also, the Emax (Appendix A) is 78%.
Regarding `O=C(NCCCC(F)(F)F)c1ccc2c(c1)N=C(c1ccsc1)c1ccccc1S2` [drawing 555], the IC50 under setting [1] is 2 nM. Besides, the Emax (Appendix A) is 90%.
Turning to `CCONC(=O)c1ccc2c(c1)N=C(c1ccc(Cl)c(Cl)c1)c1ccccc1S2` [drawing 806], the Emax (Appendix A) came out at 87%.
Regarding `O=C(NN1CCCCCC1)c1ccc2c(c1)N=C(c1ccc(Cl)cc1Cl)c1ccccc1S2` [drawing 876], under setting [1], the IC50 was 200 nM. In addition, the Emax (Appendix A) stood at 82%.
As to `O=C(NNC(=O)c1ccc2c(c1)N=C(c1ccc(Br)cc1)c1ccccc1S2)c1ccccc1`, under setting [1], the IC50 was 251 nM. Further, where the note is “Appendix A”, the Emax came out at 88%.
The corresponding values for `O=C(NCCc1ccc(Cl)cc1)c1ccc2c(c1)N=C(c1ccc(F)cc1)c1ccccc1S2` [drawing 673] are 6.31 nM and 107%.
In the case of `CCCCN(C)C(=O)c1ccc2c(c1)N=C(c1ccc(F)cc1)c1ccccc1S2`, the IC50 under setting [1] was 31.6 nM. Also, the Emax (Appendix A) turned out to be 107%.
As for `O=C(NCCc1ccccn1)c1ccc2c(c1)N=C(c1ccc(Cl)c(Cl)c1)c1ccccc1S2` [drawing 1077], the IC50 under setting [1] is 31.6 nM. The Emax (Appendix A) was determined as 93%.
For `CCCCN(CCCC)CCNC(=O)c1ccc2c(c1)N=C(CCC)c1ccccc1S2`, the IC50 under setting [1] is 398 nM. The Emax (Appendix A) stood at 109%.
Turning to `Cc1ccsc1C1=Nc2cc(C(=O)NC(C)C)ccc2Sc2ccccc21` [drawing 684], under setting [1], the IC50 was 63.1 nM. Also, the Emax (Appendix A) is 95%.
Take `O=C(NN1CCCCC1)c1ccc2c(c1)NC(C1CCCCC1)c1ccccc1S2` (centres unmarked): under setting [1], the IC50 was 501 nM. Moreover, under “Appendix A”, the Emax came to 43%.
In the case of `O=C(NCc1cccs1)c1ccc2c(c1)N=C(c1ccc(Cl)s1)c1ccccc1S2` [drawing 553], the IC50 under setting [1] was 2 nM. For the same molecule, the Emax (Appendix A) came to 114%.
As to `O=C(NC1CCCCC1)c1ccc2c(c1)N=C(c1ccccn1)c1ccccc1S2` [drawing 598], the Emax (Appendix A) worked out at 112%. The same molecule gave an IC50 (pIC50, Appendix A) of 50.1 nM.
Regarding `Cc1cccnc1C1=Nc2cc(C(=O)NCc3cccs3)ccc2Sc2ccccc21`, the IC50 under setting [1] was 100 nM. In addition, the Emax (Appendix A) came out at 97%.
On to `O=C(NCCc1cccc(Cl)c1)c1ccc2c(c1)N=C(c1cccc(Cl)c1)c1ccccc1S2` [drawing 779], for which, under setting [1], the IC50 is 10 nM. The Emax (Appendix A) turned out to be 107%.
In the case of `O=C(NC1CCC(F)(F)CC1)c1ccc2c(c1)N=C(c1cccc(Cl)c1)c1ccccc1S2` [drawing 699], for the setting “Appendix A”, the Emax turned out to be 91%. Further, the IC50 (pIC50, Appendix A) was 7.94 nM.
Take `CCCCN(C)C(=O)c1ccc2c(c1)N=C(c1ccccc1F)c1ccccc1S2`: under setting [1], the IC50 was 251 nM. Also, the Emax (Appendix A) worked out at 77%.
The corresponding values for `O=C(Cc1ccccc1)NNC(=O)c1ccc2c(c1)N=C(N1CCCCC1)c1ccccc1S2` are 200 nM and 69%.
Take `CON(C)C(=O)c1ccc2c(c1)N=C(c1ccccn1)c1ccccc1S2`: for the setting “Appendix A”, the pIC50 is listed as 1.0 and the Emax was 8%.
In the case of `CCCC1=Nc2cc(C(=O)NCCCN(CC)CC)ccc2Sc2ccccc21`, the IC50 under setting [1] was 2510 nM. Further, the Emax (Appendix A) turned out to be 125%.
In the case of `O=C(NCCc1cccc(Cl)c1)c1ccc2c(c1)N=C(c1ccccc1)c1ccccc1S2` [drawing 1069], the IC50 under setting [1] is 31.6 nM. Further, the Emax (Appendix A) was found to be 102%.
Turning to `CCCCNC(=O)c1ccc2c(c1)N=C(CCC)c1ccccc1S2`, the IC50 under setting [1] is 25.1 nM. The Emax (Appendix A) is 111%.
With `CCONC(=O)c1ccc2c(c1)N=C(c1ccc(F)cc1)c1ccccc1S2`, the IC50 under setting [1] was 63.1 nM. In addition, the Emax (Appendix A) was 98%.
For the molecule `O=C(NCCc1ccccn1)c1ccc2c(c1)N=C(c1ccc(F)cc1)c1ccccc1S2` [drawing 1145], the IC50 under setting [1] was 39.8 nM. Also, the Emax (Appendix A) stood at 101%.
Turning to `CCCC1=Nc2cc(C(=O)NC(C)CC)ccc2Sc2ccccc21` (centres unmarked), the IC50 under setting [1] is 100 nM. Also, the Emax (Appendix A) turned out to be 105%.

(Values after patent US20080090805A1, “CB-1 MODULATING COMPOUNDS AND THEIR USE” (ACADIA PHARMACEUTICALS INC., priority 2005, published 2008).)
